Assay [1] relates to MDA-MB-231. In words: drug sensitivity score (DSS); higher = more sensitive; extreme values may be limits of the assay. The note with it: incubation time: 72 h. On the procedure: (§1)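 MDA-MB-231 breast cancer cells were transfected with siBRCA1 or non-targeting siControl, then seeded 24 h later at 4000 cells/well in 384-well plates holding 198 drugs at 5 concentrations. Viability was read by CellTiter-Blue after 72 h at 37 °C. Dose-response curves were fitted in Dotmatics to give IC50 and a drug sensitivity score (DSS: area under the curve relative to the area between the 10% threshold and 100% inhibition, normalised by the log of the top response). The dose range is not stated. IC50 values of 8333.3 or 4166.7 nM mark no response (top dose), and 0.8333 nM is the lower limit.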

For assay [2], the system named is MDA-MB-231. The note with it: incubation time: 72 h. On the procedure: as §1
Setting [3] is: siRNA: siControl (non-targeting).

“And” between values parts separate entries of the source, which are not always exact repeats. Identical values can stand only once. Where only a bound is given, the exact number is not on record here.

Take `CC(=O)O[C@@]12CO[C@@H]1C[C@H](O)[C@@]1(C)C(=O)[C@H](O)C3=C(C)[C@@H](OC(=O)[C@H](O)[C@@H](NC(=O)OC(C)(C)C)c4ccccc4)C[C@@](O)([C@@H](OC(=O)c4ccccc4)[C@H]21)C3(C)C` [Docetaxel]: the drug sensitivity score in assay [1] (siRNA: siBRCA1) is 32.7 and 31.2; in assay [1] (setting [3]), 33.3 and 33.8. The “IC50 of cell viability” value was 0.00271 µM in assay [2] (siRNA: siBRCA1); 0.00157 µM and 0.00183 µM in assay [2] (setting [3]).

Consider `Cc1ccc(-n2nc(C(C)(C)C)cc2NC(=O)Nc2ccc(OCCN3CCOCC3)c3ccccc23)cc1` [Doramapimod], for which the drug sensitivity score in assay [1] (siRNA: siBRCA1) and in assay [1] (setting [3]) was 0 each time. The “IC50 of cell viability” value in assay [2] (siRNA: siBRCA1) and in assay [2] (setting [3]) was more than 4.17 µM throughout.

For `CN1CCN(c2ccc3nc(-c4c(N)c5c(F)cccc5[nH]c4=O)[nH]c3c2)CC1` [Dovitinib], the drug sensitivity score in assay [1] (siRNA: siBRCA1) and in assay [1] (setting [3]) was 0 in each case. Moreover, the “IC50 of cell viability” value in assay [2] (siRNA: siBRCA1) and in assay [2] (setting [3]) was more than 4.17 µM throughout.

On to `COc1cccc2c1C(=O)c1c(O)c3c(c(O)c1C2=O)C[C@@](O)(C(=O)CO)C[C@@H]3O[C@H]1C[C@H](N)[C@H](O)[C@H](C)O1` [Doxorubicin], for which the drug sensitivity score in assay [1] (siRNA: siBRCA1) was found to be 17.9; in assay [1] (setting [3]), 19.6. Further, the “IC50 of cell viability” value is 0.205 µM in assay [2] (siRNA: siBRCA1) and 0.148 µM in assay [2] (setting [3]).

On to `Nc1ccccc1NC(=O)c1ccc(CNC(=O)OCc2cccnc2)cc1` [Entinostat], for which the drug sensitivity score in assay [1] (siRNA: siBRCA1) came to 0; in assay [1] (setting [3]), 2.12. For the same molecule, the “IC50 of cell viability” value in assay [2] (siRNA: siBRCA1) and in assay [2] (setting [3]) was more than 4.17 µM each time.

For `Cn1cc(C2=C(c3cn(C4CCN(Cc5ccccn5)CC4)c4ccccc34)C(=O)NC2=O)c2ccccc21` [Enzastaurin], the drug sensitivity score in assay [1] (siRNA: siBRCA1) and in assay [1] (setting [3]) was 0 throughout. Also, the “IC50 of cell viability” value in assay [2] (siRNA: siBRCA1) and in assay [2] (setting [3]) was more than 4.17 µM in each case.

As to `C/C(=C\c1csc(C)n1)[C@@H]1C[C@@H]2O[C@]2(C)CCC[C@H](C)[C@H](O)[C@@H](C)C(=O)C(C)(C)[C@@H](O)CC(=O)O1` [Epothilone B (Patupilone)], the drug sensitivity score was determined as 23.4 in assay [1] (siRNA: siBRCA1) and 23.6 in assay [1] (setting [3]). The “IC50 of cell viability” value came to 0.0294 µM in assay [2] (siRNA: siBRCA1) and 0.0291 µM in assay [2] (setting [3]).

Take `C#Cc1cccc(Nc2ncnc3cc(OCCOC)c(OCCOC)cc23)c1` [Erlotinib]: the drug sensitivity score in assay [1] (siRNA: siBRCA1) and in assay [1] (setting [3]) was 0 throughout. Also, the “IC50 of cell viability” value in assay [2] (siRNA: siBRCA1) and in assay [2] (setting [3]) was more than 4.17 µM each time.

For the molecule `COc1cc([C@@H]2c3cc4c(cc3[C@@H](O[C@@H]3O[C@@H]5CO[C@@H](C)O[C@H]5[C@H](O)[C@H]3O)[C@H]3COC(=O)[C@H]23)OCO4)cc(OC)c1O` [Etoposide], the drug sensitivity score in assay [1] (siRNA: siBRCA1) was found to be 10; in assay [1] (setting [3]) it was 2.9. For the same molecule, the “IC50 of cell viability” value in assay [2] (siRNA: siBRCA1) was 0.0919 µM; in assay [2] (setting [3]), more than 4.17 µM.

Turning to `CO[C@H]1C[C@@H]2CC[C@@H](C)[C@@](O)(O2)C(=O)C(=O)N2CCCC[C@H]2C(=O)O[C@H]([C@H](C)C[C@@H]2CC[C@@H](OCCO)[C@H](OC)C2)CC(=O)[C@H](C)/C=C(\C)[C@@H](O)[C@@H](OC)C(=O)[C@H](C)C[C@H](C)/C=C/C=C/C=C/1C` [Everolimus], the drug sensitivity score in assay [1] (siRNA: siBRCA1) is 19.8 and 16.9; in assay [1] (setting [3]), 21.1 and 21.8. Besides, the “IC50 of cell viability” value in assay [2] (siRNA: siBRCA1) is 0.00112 µM and < 0.000833 µM; in assay [2] (setting [3]), less than 0.000833 µM.

With `C=C1C[C@@H]2[C@H](CC[C@]3(C)C(=O)CC[C@@H]23)[C@@]2(C)C=CC(=O)C=C12` [Exemestane], the drug sensitivity score in assay [1] (siRNA: siBRCA1) and in assay [1] (setting [3]) was 0 throughout. The “IC50 of cell viability” value in assay [2] (siRNA: siBRCA1) and in assay [2] (setting [3]) was more than 4.17 µM throughout.

With `O=S(=O)(c1cccc2cnccc12)N1CCCNCC1` [Fasudil], the drug sensitivity score in assay [1] (siRNA: siBRCA1) and in assay [1] (setting [3]) was 0 throughout. In addition, the “IC50 of cell viability” value in assay [2] (siRNA: siBRCA1) and in assay [2] (setting [3]) was more than 4.17 µM in each case.

As to `CC(C)(C)NC(=O)[C@H]1CC[C@H]2[C@@H]3CC[C@H]4NC(=O)C=C[C@]4(C)[C@H]3CC[C@]12C` [Finasteride], the drug sensitivity score in assay [1] (siRNA: siBRCA1) and in assay [1] (setting [3]) was 0 each time. The “IC50 of cell viability” value in assay [2] (siRNA: siBRCA1) and in assay [2] (setting [3]) was more than 4.17 µM throughout.

As to `CCCCCCCCc1ccc(CCC(N)(CO)CO)cc1` [Fingolimod], the drug sensitivity score in assay [1] (siRNA: siBRCA1) is 5.09; in assay [1] (setting [3]) it was 7.79. For the same molecule, the “IC50 of cell viability” value was determined as 3 µM in assay [2] (siRNA: siBRCA1) and 1.71 µM in assay [2] (setting [3]).

Regarding `O=c1[nH]c(=O)n([C@H]2C[C@H](O)[C@@H](CO)O2)cc1F` [Floxuridine], the values for the drug sensitivity score in assay [1] (siRNA: siBRCA1) and in assay [1] (setting [3]) were 8.85 and 11.5, respectively. Further, the results for the “IC50 of cell viability” value in assay [2] (siRNA: siBRCA1) and in assay [2] (setting [3]) were 0.748 µM and 0.291 µM, respectively.

Values taken from the supplement of paper PMC4649846.
